Test results reported in PubChem BioAssay (NCI).
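Compound exposure: 48 hours, 5 concentrations, 96-well plates. TGI marks complete inhibition of growth.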

Columns and labels:
Assay in all cases: DTP human tumour cell line panel, 48 h
SNB-75 CNS = tested on: SNB-75 CNS
RPMI-8226 leukemia = tested on: RPMI-8226 leukemia
MOLT-4 leukemia = tested on: MOLT-4 leukemia
CCRF-CEM leukemia = tested on: CCRF-CEM leukemia
SR leukemia = tested on: SR leukemia
OVCAR-4 ovarian = tested on: OVCAR-4 ovarian
UO-31 renal = tested on: UO-31 renal
SF-539 CNS = tested on: SF-539 CNS
SK-MEL-28 melanoma = tested on: SK-MEL-28 melanoma
LXFL 529 NSCLC = tested on: LXFL 529 NSCLC
A498 renal = tested on: A498 renal
NCI-H23 lung = tested on: NCI-H23 lung
NCI-H226 lung = tested on: NCI-H226 lung
DMS 273 small cell lung = tested on: DMS 273 small cell lung
HL-60(TB) leukemia = tested on: HL-60(TB) leukemia
MALME-3M melanoma = tested on: MALME-3M melanoma
DMS 114 small cell lung = tested on: DMS 114 small cell lung
RXF-631 renal = tested on: RXF-631 renal
SK-OV-3 ovarian = tested on: SK-OV-3 ovarian
HOP-92 NSCLC = tested on: HOP-92 NSCLC
IGROV1 ovarian = tested on: IGROV1 ovarian
UACC-62 melanoma = tested on: UACC-62 melanoma
ACHN renal = tested on: ACHN renal
DLD-1 colon = tested on: DLD-1 colon
M14 melanoma = tested on: M14 melanoma
786-0 renal = tested on: 786-0 renal
COLO 205 colon = tested on: COLO 205 colon
SF-268 CNS = tested on: SF-268 CNS
SN12C renal = tested on: SN12C renal
XF 498 CNS = tested on: XF 498 CNS
NCI-H522 lung = tested on: NCI-H522 lung
HCC-2998 colon = tested on: HCC-2998 colon
CAKI-1 renal = tested on: CAKI-1 renal
M19-MEL melanoma = tested on: M19-MEL melanoma
HCT-116 colon = tested on: HCT-116 colon
K-562 leukemia = tested on: K-562 leukemia
SK-MEL-2 melanoma = tested on: SK-MEL-2 melanoma
HOP-62 NSCLC = tested on: HOP-62 NSCLC
SNB-19 CNS = tested on: SNB-19 CNS
OVCAR-3 ovarian = tested on: OVCAR-3 ovarian
KM20L2 colon = tested on: KM20L2 colon
RXF 393 renal = tested on: RXF 393 renal
EKVX NSCLC = tested on: EKVX NSCLC
HT29 colon = tested on: HT29 colon
HCT-15 colon = tested on: HCT-15 colon
NCI-H460 lung = tested on: NCI-H460 lung
TK-10 renal = tested on: TK-10 renal
LOX IMVI melanoma = tested on: LOX IMVI melanoma
SW-620 colon = tested on: SW-620 colon
U251 CNS = tested on: U251 CNS
OVCAR-8 ovarian = tested on: OVCAR-8 ovarian
OVCAR-5 ovarian = tested on: OVCAR-5 ovarian
SNB-78 CNS = tested on: SNB-78 CNS
KM12 colon = tested on: KM12 colon
HOP-18 NSCLC = tested on: HOP-18 NSCLC
A549 NSCLC = tested on: A549 NSCLC
SK-MEL-5 melanoma = tested on: SK-MEL-5 melanoma
UACC-257 melanoma = tested on: UACC-257 melanoma

Measured: TGI

Cc1ncc(CCl)c(CCl)c1O
> 100 µM: SNB-75 CNS | RPMI-8226 leukemia | MOLT-4 leukemia | CCRF-CEM leukemia | SR leukemia | OVCAR-4 ovarian | UO-31 renal | SF-539 CNS | SK-MEL-28 melanoma | LXFL 529 NSCLC | A498 renal | NCI-H23 lung | NCI-H226 lung | DMS 273 small cell lung | HL-60(TB) leukemia | MALME-3M melanoma | DMS 114 small cell lung | RXF-631 renal | SK-OV-3 ovarian | HOP-92 NSCLC | IGROV1 ovarian | UACC-62 melanoma | ACHN renal | DLD-1 colon | M14 melanoma | 786-0 renal | COLO 205 colon | SF-268 CNS | SN12C renal | XF 498 CNS | NCI-H522 lung | HCC-2998 colon | CAKI-1 renal | M19-MEL melanoma | HCT-116 colon | K-562 leukemia | SK-MEL-2 melanoma | HOP-62 NSCLC

Cn1c(=O)c(C(=O)NC(=O)NCCCCCOC(=O)CCCCCCCCCCC(=O)OCCCCCNC(=O)NC(=O)c2cn(Cc3ccccc3)c(=O)n(C)c2=O)cn(Cc2ccccc2)c1=O
> 100 µM: SNB-75 CNS | RPMI-8226 leukemia | CCRF-CEM leukemia | SNB-19 CNS | OVCAR-3 ovarian | KM20L2 colon | RXF 393 renal | OVCAR-4 ovarian | EKVX NSCLC | UO-31 renal | SF-539 CNS | SK-MEL-28 melanoma | LXFL 529 NSCLC | A498 renal | HT29 colon | HCT-15 colon | NCI-H23 lung | NCI-H226 lung | NCI-H460 lung | DMS 273 small cell lung | TK-10 renal | HL-60(TB) leukemia | LOX IMVI melanoma | MALME-3M melanoma | DMS 114 small cell lung | SK-OV-3 ovarian | SW-620 colon | HOP-92 NSCLC | IGROV1 ovarian | U251 CNS | OVCAR-8 ovarian | OVCAR-5 ovarian | UACC-62 melanoma | SNB-78 CNS | ACHN renal | DLD-1 colon | M14 melanoma | 786-0 renal | COLO 205 colon | KM12 colon | SF-268 CNS | HOP-18 NSCLC | SN12C renal | XF 498 CNS | NCI-H522 lung | HCC-2998 colon | CAKI-1 renal | M19-MEL melanoma | HCT-116 colon | K-562 leukemia | SK-MEL-2 melanoma | HOP-62 NSCLC | A549 NSCLC | SK-MEL-5 melanoma | UACC-257 melanoma
